Test results published in US4588822A, “Physiologically active substances SS 12538, their preparation and a novel microorganism producing same” (SS Pharmaceutical Co., Ltd., priority 1982, dated 1986).
In brackets after ≈: the same amount, converted by molar mass. Where two headings read alike, the source gives them in different places.

Key:
mongrel dogs = experiment: Vasodilating activity in anesthetized mongrel dogs (coronary blood flow, blood pressure, heart rate after dosing into the vein); format: in vivo, dog (mongrel); conditions: for Blood Pressure Duration / Blood Pressure Reduction / Coronary Blood Flow Duration / Coronary Blood Flow Increase / Heart Rate Reduction: i.v., dog; for titer relative to dipyridamol: compared with currently employed dipyridamol
Protocol: 4 male mongrel dogs, weighing 15-25 Kg, were provided as laboratory animals and were anesthesized with sodium pentobarbital (30 mg/kg i.v.). Thereafter, the left circumflex coronary artery was exposed under artificial respiration and a probe of an electromagnetic flow meter was attached. A polyethylene cannula was inserted into the left femoral artery.
Test compounds were dissolved in a small amount of dimethyl sulfoxide and diluted with a sterilized physiological saline for injection, followed by dosing it into the vein.
Coronary blood was measured by means of the electromagnetic flow meter and the blood pressure was determined from the polyethylene cannule through a pressure transducer. Also, heart rate was measured by an instantaneous pulse meter from RR intervals of an electrocardiogram. Each parameter was recorded on a polygraph. Changes of these parameters prior to and after administration of each compound were observed.
In accordance with the procedure as used with SS 12538A, the vasodilating activity of SS 12538B was determined.
In the same manner as in the case of SS 12538A, the vasodilating activity of SS 12538C was determined with the results shown in Table 5.

Bacillus cereus IID 871 = experiment: Antibacterial activity (MIC), Bacillus cereus IID 871; format: cell-based
Excerpt: (§1) Minimum inhibitory concentration (MIC) of the physiologically active substance SS 12538A against various microorganisms are shown in FIG. 2.
(§2) Minimum inhibitory concentration (MIC) of the physiologically active substance SS 12538B against various microorganisms are shown in Table 4 below.
(§3) Minimum inhibitory concentration (MIC) of the physiologically active substance SS 12538C against various microorganisms are shown in Table 6 below.

[1] = test system: Klebsiella pneumoniae ATCC 10031; experiment: Antibacterial activity (MIC), Klebsiella pneumoniae ATCC 10031; format: cell-based
Excerpt: as §1, §2, §3

[2] = test system: Micrococcus lysodeikticus IFO 3333; experiment: Antibacterial activity (MIC), Micrococcus lysodeikticus IFO 3333; format: cell-based; conditions: Micrococcus luteus
Excerpt: as §1, §2, §3

[3] = test system: Staphylococcus epidermidis ATCC 12228; experiment: Antibacterial activity (MIC), Staphylococcus epidermidis ATCC 12228; format: cell-based
Excerpt: as §1, §2, §3

[4] = test system: Aspergillus niger ATCC 9642; experiment: Antifungal activity (MIC), Aspergillus niger ATCC 9642; format: cell-based
Excerpt: as §1, §2, §3

[5] = test system: Staphylococcus aureus ATCC 6538P; experiment: Antibacterial activity (MIC), Staphylococcus aureus ATCC 6538P; format: cell-based; conditions: ATCC6538P, read-out: Minimum Inhibitory Concentration MIC
Excerpt: as §1, §2, §3

[6] = test system: Bacillus subtilis ATCC 6633; experiment: Antibacterial activity (MIC), Bacillus subtilis ATCC 6633; format: cell-based
Excerpt: as §1, §2, §3

[7] = test system: Microsporum gypseum IFO 8231; experiment: Antifungal activity (MIC), Microsporum gypseum IFO 8231; format: cell-based; conditions: Nannizzia gypsea
Excerpt: as §1, §2, §3

[8] = test system: Trichophyton mentagrophytes QM 248; experiment: Antifungal activity (MIC), Trichophyton mentagrophytes QM 248; format: cell-based
Excerpt: as §1, §2, §3

Solubilities in solvents = format: physicochemical; conditions: for Solubility in organic solvents: chloroform, ethyl acetate, acetone, ethyl ether, ethanol, methanol, pyridine, benzene and dimethyl sulfoxide
[9] = test system: Saccharomyces cerevisiae ATCC 9763; experiment: Antifungal activity (MIC), Saccharomyces cerevisiae ATCC 9763; format: cell-based
Excerpt: as §1, §2, §3

[10] = test system: Pseudomonas aeruginosa IFO 13736; experiment: Antibacterial activity (MIC), Pseudomonas aeruginosa IFO 13736; format: cell-based
Excerpt: as §1, §2, §3

[11] = test system: Candida albicans ATCC 10231; experiment: Antifungal activity (MIC), Candida albicans ATCC 10231; format: cell-based
Excerpt: as §1, §2, §3

Escherichia coli 0-1 = experiment: Antibacterial activity (MIC), Escherichia coli 0-1; format: cell-based
Excerpt: as §1, §2, §3

[12] = IID871, Bacillus cereus IID 871, read-out: Minimum Inhibitory Concentration MIC
[13] = ATCC10031, Klebsiella pneumoniae ATCC 10031, read-out: Minimum Inhibitory Concentration MIC
[14] = IFO3333, Micrococcus lysodeikticus IFO 3333, read-out: Minimum Inhibitory Concentration MIC
[15] = ATCC12228, Staphylococcus epidermidis ATCC 12228, read-out: Minimum Inhibitory Concentration MIC
[16] = ATCC9642, Aspergillus niger ATCC 9642, read-out: Minimum Inhibitory Concentration MIC
[17] = Staphylococcus aureus ATCC 6538P
[18] = ATCC6633, Bacillus subtilis ATCC 6633, read-out: Minimum Inhibitory Concentration MIC
[19] = IFO8231, Microsporum gypseum IFO 8231, read-out: Minimum Inhibitory Concentration MIC
[20] = QM248, Trichophyton mentagrophytes QM 248, read-out: Minimum Inhibitory Concentration MIC
[21] = ATCC9763, Saccharomyces cerevisiae ATCC 9763, read-out: Minimum Inhibitory Concentration MIC
[22] = IFO13736, Pseudomonas aeruginosa IFO 13736, read-out: Minimum Inhibitory Concentration MIC
[23] = ATCC10231, Candida albicans ATCC 10231, read-out: Minimum Inhibitory Concentration MIC
[24] = 01, Escherichia coli 0-1, read-out: Minimum Inhibitory Concentration MIC

| Structure (SMILES) | titer relative to dipyridamol (mongrel dogs) | Blood Pressure Duration (mongrel dogs; dose 3 μg/kg) | Blood Pressure Reduction (mongrel dogs; dose 3 μg/kg) | Coronary Blood Flow Duration (mongrel dogs; dose 3 μg/kg) | Coronary Blood Flow Increase (mongrel dogs; dose 3 μg/kg) | Heart Rate Reduction (mongrel dogs; dose 3 μg/kg) | Blood Pressure Duration (mongrel dogs; dose 10 μg/kg) | Blood Pressure Reduction (mongrel dogs; dose 10 μg/kg) | Coronary Blood Flow Duration (mongrel dogs; dose 10 μg/kg) | Coronary Blood Flow Increase (mongrel dogs; dose 10 μg/kg) | Heart Rate Reduction (mongrel dogs; dose 10 μg/kg) | Blood Pressure Duration (mongrel dogs; dose 30 μg/kg) | Blood Pressure Reduction (mongrel dogs; dose 30 μg/kg) | Coronary Blood Flow Duration (mongrel dogs; dose 30 μg/kg) | Coronary Blood Flow Increase (mongrel dogs; dose 30 μg/kg) | Heart Rate Reduction (mongrel dogs; dose 30 μg/kg) | MIC (Bacillus cereus IID 871; [12]) | MIC [1, 13] | Solubility in organic solvents (Solubilities in solvents) | Solubility in water (Solubilities in solvents) | other results |
| --- | --- | --- | --- | --- | --- | --- | --- | --- | --- | --- | --- | --- | --- | --- | --- | --- | --- | --- | --- | --- | --- |
| OCCN(CCO)c1nc(N2CCCCC2)c2nc(N(CCO)CCO)nc(N3CCCCC3)c2n1 [Dipyridamol, dipyridamol, reference compound] |  |  |  |  |  |  |  |  |  |  |  |  |  |  |  |  |  |  |  |  | Blood Pressure Duration (mongrel dogs; dose 300 μg/kg): 16 min; Blood Pressure Reduction (mongrel dogs; dose 300 μg/kg): 13.2%; Coronary Blood Flow Duration (mongrel dogs; dose 300 μg/kg): 20 min; Coronary Blood Flow Increase (mongrel dogs; dose 300 μg/kg): 135.7%; Heart Rate Reduction (mongrel dogs; dose 300 μg/kg): 0% |
| CC=C(C)C(O)C(C)C=C(C)C=CCC(C)=CCc1oc(OC)c(C)c(=O)c1C (stereo not drawn) [SS 12538A] | about 30 times | 7 min | 4.9% | 10 min | 17.1% | 2.3% | 10 min | 12.6% | 20 min | 168.6% | 2.9% | 30 min | 28.7% | 40 min | 441.3% | 1.8% | 12.5 µg/mL (≈ 31.2 µM) | > 100 µg/mL | Soluble | sparingly soluble | MIC [2, 14]: 25 µg/mL (≈ 62.4 µM); MIC [3, 15]: < 6.25 µg/mL; MIC [4, 16]: > 100 µg/mL; MIC [5, 17]: > 100 µg/mL; MIC [6, 18]: > 100 µg/mL; MIC [7, 19]: < 6.25 µg/mL; MIC [8, 20]: > 100 µg/mL; MIC [9, 21]: > 100 µg/mL; MIC [10, 22]: > 100 µg/mL; MIC [11, 23]: > 100 µg/mL; MIC (Escherichia coli 0-1; [24]): > 100 µg/mL |
| CC=C(C)C(O)C(C)C=C(C)C=CCC(C)=CCc1oc(OC)cc(=O)c1C (stereo not drawn) [SS 12538B] | about 30 times | 6 min | 7.5% | 10 min | 103.3% | 2.0% | 20 min | 27.7% | 15 min | 143.8% | 13.0% |  |  |  |  |  | 50 µg/mL (≈ 129 µM) | > 100 µg/mL | Soluble | sparingly soluble | MIC [2, 14]: 25 µg/mL (≈ 64.7 µM); MIC [3, 15]: 25 µg/mL (≈ 64.7 µM); MIC [4, 16]: > 100 µg/mL; MIC [5, 17]: 25 µg/mL (≈ 64.7 µM); MIC [6, 18]: 50 µg/mL (≈ 129 µM); MIC [7, 19]: 100 µg/mL (≈ 259 µM); MIC [8, 20]: 25 µg/mL (≈ 64.7 µM); MIC [9, 21]: > 100 µg/mL; MIC [10, 22]: > 100 µg/mL; MIC [11, 23]: > 100 µg/mL; MIC (Escherichia coli 0-1; [24]): > 100 µg/mL |
| CC=C(C)C(O)C(C)C=C(C)C=CCC(C)=CCc1oc(OC)c(CC)c(=O)c1C (stereo not drawn) [SS 12538C] | about 3 times |  |  |  |  |  | 0 min | 0% | 5 min | 30.0% | 0% | 10 min | 2.9% | 10 min | 60.0% | 0% |  |  | Soluble | sparingly soluble | Blood Pressure Duration (mongrel dogs; dose 100 μg/kg): 15 min; Blood Pressure Reduction (mongrel dogs; dose 100 μg/kg): 8.5%; Coronary Blood Flow Duration (mongrel dogs; dose 100 μg/kg): 15 min; Coronary Blood Flow Increase (mongrel dogs; dose 100 μg/kg): 130.0%; Heart Rate Reduction (mongrel dogs; dose 100 μg/kg): 10.1%; MIC (Bacillus cereus IID 871; Bacillus cereus, IID871, read-out: Minimum Inhibitory Concentration MIC): 25 µg/mL (≈ 60.3 µM); MIC ([1]; Klebsiella pneumoniae, ATCC10031, read-out: Minimum Inhibitory Concentration MIC): > 100 µg/mL; MIC ([2]; IFO3333, read-out: Minimum Inhibitory Concentration MIC): 12.5 µg/mL (≈ 30.2 µM); MIC ([3]; Staphylococcus epidermidis, ATCC12228, read-out: Minimum Inhibitory Concentration MIC): 25 µg/mL (≈ 60.3 µM); MIC ([4]; Aspergillus niger, ATCC9642, read-out: Minimum Inhibitory Concentration MIC): > 100 µg/mL; MIC ([5]; Staphylococcus aureus): 100 µg/mL (≈ 241 µM); MIC ([6]; Bacillus subtilis, ATCC6633, read-out: Minimum Inhibitory Concentration MIC): > 100 µg/mL; MIC ([7]; IFO8231, read-out: Minimum Inhibitory Concentration MIC): > 100 µg/mL; MIC ([8]; Trichophyton mentagrophytes, QM248, read-out: Minimum Inhibitory Concentration MIC): 50 µg/mL (≈ 121 µM); MIC ([9]; Saccharomyces cerevisiae, ATCC9763, read-out: Minimum Inhibitory Concentration MIC): > 100 µg/mL; MIC ([10]; Pseudomonas aeruginosa, IFO13736, read-out: Minimum Inhibitory Concentration MIC): > 100 µg/mL; MIC ([11]; Candida albicans, ATCC10231, read-out: Minimum Inhibitory Concentration MIC): > 100 µg/mL; MIC (Escherichia coli 0-1; Escherichia coli, 01, read-out: Minimum Inhibitory Concentration MIC): > 100 µg/mL |
